Results published in PubChem BioAssay (NCI).
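Interpolation was linear, between the two tested concentrations surrounding the appropriate level; five concentrations were tested over 48 hours in 96-well plates. GI50: concentration for 50% inhibition of growth. TGI: concentration producing complete growth inhibition.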

Experiments:
Assay in all cases: NCI-60 cell line screen, 48 h
[1] = test system: HT29 colon
[2] = test system: OVCAR-5 ovarian
[3] = test system: NCI-H23 lung
[4] = test system: SNB-75 CNS
[5] = test system: SNB-19 CNS
[6] = test system: CCRF-CEM leukemia
[7] = test system: CAKI-1 renal
[8] = test system: TK-10 renal
[9] = test system: NCI/ADR-RES ovarian
[10] = test system: SF-539 CNS
[11] = test system: UO-31 renal
[12] = test system: HCC-2998 colon
[13] = test system: SK-MEL-5 melanoma
[14] = test system: HOP-62 NSCLC
[15] = test system: HOP-92 NSCLC
[16] = test system: 786-0 renal
[17] = test system: SW-620 colon
[18] = test system: T-47D breast
[19] = test system: SK-MEL-28 melanoma
[20] = test system: OVCAR-3 ovarian
[21] = test system: SR leukemia
[22] = test system: IGROV1 ovarian
[23] = test system: SK-OV-3 ovarian
[24] = test system: OVCAR-4 ovarian
[25] = test system: PC-3 prostate
[26] = test system: SF-268 CNS
[27] = test system: ACHN renal
[28] = test system: SN12C renal
[29] = test system: NCI-H226 lung
[30] = test system: A498 renal
[31] = test system: HL-60(TB) leukemia
[32] = test system: COLO 205 colon
[33] = test system: NCI-H522 lung
[34] = test system: BT-549 breast
[35] = test system: KM12 colon
[36] = test system: SK-MEL-2 melanoma
[37] = test system: MCF7 breast
[38] = test system: NCI-H460 lung
[39] = test system: LOX IMVI melanoma
[40] = test system: MDA-MB-231 breast
[41] = test system: EKVX NSCLC
[42] = test system: RXF 393 renal
[43] = test system: SF-295 CNS
[44] = test system: MDA-MB-435
[45] = test system: M14 melanoma
[46] = test system: RPMI-8226 leukemia
[47] = test system: UACC-62 melanoma
[48] = test system: A549 NSCLC
[49] = test system: OVCAR-8 ovarian
[50] = test system: HCT-116 colon
[51] = test system: MOLT-4 leukemia
[52] = test system: U251 CNS
[53] = test system: HCT-15 colon
[54] = test system: K-562 leukemia
[55] = test system: DU-145 prostate
[56] = test system: HS 578T breast
[57] = test system: UACC-257 melanoma
[58] = test system: MALME-3M melanoma

CCCCCCCC(=O)SCC/C=C/[C@@H]1CC(=O)NCc2cccc(n2)C2=N[C@@](C)(CS2)C(=O)N[C@@H](C(C)C)C(=O)O1
GI50 [1]: 25.6 nM
TGI [1]: > 33300 nM
GI50 [2]: 25.4 nM
TGI [2]: > 33300 nM
GI50 [3]: 85.8 nM
TGI [3]: > 33300 nM
GI50 [4]: 29 nM
TGI [4]: > 33300 nM
GI50 [5]: 191 nM
TGI [5]: > 33300 nM
GI50 [6]: 112 nM
TGI [6]: > 33300 nM
GI50 [7]: 174 nM
GI50 [8]: 26.2 nM
TGI [8]: 361 nM
GI50 [9]: 319 nM
TGI [9]: > 33300 nM
GI50 [10]: 56.3 nM
TGI [10]: > 33300 nM
GI50 [11]: 64.7 nM
TGI [11]: 1030 nM
GI50 [12]: 52.8 nM
TGI [12]: 324 nM
GI50 [13]: 27.1 nM
TGI [13]: 115 nM
GI50 [14]: 25.2 nM
TGI [14]: > 33300 nM
GI50 [15]: 84.1 nM
TGI [15]: 520 nM
GI50 [16]: 98.9 nM
TGI [16]: > 33300 nM
GI50 [17]: 92.1 nM
TGI [17]: 3720 nM
GI50 [18]: 147 nM
TGI [18]: 1600 nM
GI50 [19]: 31.2 nM
TGI [19]: 3010 nM
GI50 [20]: 87.7 nM
TGI [20]: 1070 nM
GI50 [21]: 62.3 nM
TGI [21]: > 33300 nM
GI50 [22]: 26.3 nM
TGI [22]: 525 nM
GI50 [23]: 28.4 nM
TGI [23]: 596 nM
GI50 [24]: 150 nM
TGI [24]: > 33300 nM
GI50 [25]: 43.7 nM
TGI [25]: > 33300 nM
GI50 [26]: 98.6 nM
TGI [26]: > 28000 nM
GI50 [27]: 89.7 nM
TGI [27]: 693 nM
GI50 [28]: 145 nM
TGI [28]: > 33300 nM
GI50 [29]: 210 nM
TGI [29]: > 9230 nM
GI50 [30]: 20.2 nM
TGI [30]: 111 nM
GI50 [31]: 126 nM
TGI [31]: > 33300 nM
GI50 [32]: 85.7 nM
TGI [32]: 337 nM
GI50 [33]: 19.2 nM
TGI [33]: 845 nM
GI50 [34]: 190 nM
TGI [34]: > 33300 nM
GI50 [35]: 71.9 nM
TGI [35]: 5950 nM
GI50 [36]: 36.9 nM
TGI [36]: 881 nM
GI50 [37]: 82.7 nM
TGI [37]: > 33300 nM
GI50 [38]: 16.7 nM
TGI [38]: > 33300 nM
GI50 [39]: 50.1 nM
TGI [39]: 193 nM
GI50 [40]: 119 nM
TGI [40]: > 19800 nM
GI50 [41]: 86.9 nM
TGI [41]: > 33300 nM
GI50 [42]: 53.4 nM
TGI [42]: 207 nM
GI50 [43]: 62.3 nM
TGI [43]: 546 nM
GI50 [44]: 29.2 nM
TGI [44]: > 12500 nM
GI50 [45]: 34.8 nM
TGI [45]: > 33300 nM
GI50 [46]: 193 nM
TGI [46]: > 33300 nM
GI50 [47]: 17.5 nM
TGI [47]: 128 nM
GI50 [48]: 36.2 nM
TGI [48]: > 33300 nM
GI50 [49]: 25.3 nM
TGI [49]: > 33300 nM
GI50 [50]: 14.8 nM
TGI [50]: 219 nM
GI50 [51]: 70.2 nM
TGI [51]: > 33300 nM
GI50 [52]: 80.2 nM
TGI [52]: 782 nM
GI50 [53]: 249 nM
TGI [53]: > 33300 nM
GI50 [54]: 82.9 nM
TGI [54]: > 33300 nM
GI50 [55]: 28.7 nM
TGI [55]: > 33300 nM
GI50 [56]: 20.9 nM
TGI [56]: > 10100 nM

Nc1c(C(=O)c2cccc(C(O)(CO)CO)c2)cnn1-c1ccc(F)cc1
GI50 [1]: > 25000 nM
TGI [1]: > 25000 nM
GI50 [2]: > 25000 nM
TGI [2]: > 25000 nM
GI50 [3]: > 25000 nM
TGI [3]: > 25000 nM
GI50 [4]: > 25000 nM
TGI [4]: > 25000 nM
GI50 [5]: > 25000 nM
TGI [5]: > 25000 nM
GI50 [6]: > 25000 nM
TGI [6]: > 25000 nM
GI50 [7]: > 25000 nM
TGI [7]: > 25000 nM
GI50 [57]: > 25000 nM
TGI [57]: > 25000 nM
GI50 [8]: > 25000 nM
TGI [8]: > 25000 nM
GI50 [9]: > 25000 nM
TGI [9]: > 25000 nM
GI50 [10]: > 25000 nM
TGI [10]: > 25000 nM
GI50 [58]: > 25000 nM
TGI [58]: > 25000 nM
GI50 [11]: > 25000 nM
TGI [11]: > 25000 nM
GI50 [12]: > 25000 nM
TGI [12]: > 25000 nM
GI50 [13]: > 25000 nM
TGI [13]: > 25000 nM
GI50 [14]: > 25000 nM
TGI [14]: > 25000 nM
GI50 [15]: > 25000 nM
TGI [15]: > 25000 nM
GI50 [16]: > 25000 nM
TGI [16]: > 25000 nM
GI50 [17]: > 25000 nM
TGI [17]: > 25000 nM
GI50 [18]: > 25000 nM
TGI [18]: > 25000 nM
GI50 [19]: > 25000 nM
TGI [19]: > 25000 nM
GI50 [20]: > 25000 nM
TGI [20]: > 25000 nM
GI50 [21]: > 25000 nM
TGI [21]: > 25000 nM
GI50 [22]: > 25000 nM
TGI [22]: > 25000 nM
GI50 [23]: > 25000 nM
TGI [23]: > 25000 nM
GI50 [24]: > 25000 nM
TGI [24]: > 25000 nM
GI50 [25]: > 25000 nM
TGI [25]: > 25000 nM
GI50 [26]: > 25000 nM
TGI [26]: > 25000 nM
GI50 [27]: > 25000 nM
TGI [27]: > 25000 nM
GI50 [28]: > 25000 nM
TGI [28]: > 25000 nM
GI50 [29]: > 25000 nM
TGI [29]: > 25000 nM
GI50 [30]: > 25000 nM
TGI [30]: > 25000 nM
GI50 [31]: > 25000 nM
TGI [31]: > 25000 nM
GI50 [32]: > 25000 nM
TGI [32]: > 25000 nM
GI50 [33]: > 25000 nM
TGI [33]: > 25000 nM
GI50 [34]: > 25000 nM
TGI [34]: > 25000 nM
GI50 [35]: > 25000 nM
TGI [35]: > 25000 nM
GI50 [36]: > 25000 nM
TGI [36]: > 25000 nM
GI50 [37]: > 25000 nM
TGI [37]: > 25000 nM
GI50 [38]: > 25000 nM
TGI [38]: > 25000 nM
GI50 [39]: > 25000 nM
TGI [39]: > 25000 nM
GI50 [40]: > 25000 nM
TGI [40]: > 25000 nM
GI50 [42]: > 25000 nM
TGI [42]: > 25000 nM
GI50 [43]: > 25000 nM
TGI [43]: > 25000 nM
GI50 [44]: > 25000 nM
TGI [44]: > 25000 nM
GI50 [45]: > 25000 nM
TGI [45]: > 25000 nM
GI50 [46]: > 25000 nM
TGI [46]: > 25000 nM
GI50 [47]: > 25000 nM
TGI [47]: > 25000 nM
GI50 [48]: > 25000 nM
TGI [48]: > 25000 nM
GI50 [49]: > 25000 nM
TGI [49]: > 25000 nM
GI50 [50]: > 25000 nM
TGI [50]: > 25000 nM
GI50 [51]: > 25000 nM
TGI [51]: > 25000 nM
GI50 [52]: > 25000 nM
TGI [52]: > 25000 nM
GI50 [53]: > 25000 nM
TGI [53]: > 25000 nM
GI50 [54]: > 25000 nM
TGI [54]: > 25000 nM
GI50 [55]: > 25000 nM
TGI [55]: > 25000 nM
GI50 [56]: > 25000 nM
TGI [56]: > 25000 nM
